Laboratory results as given in patent US6660768B2, “Parasiticidal compositions and methods of use” (Schering-Plough Animal Health Corporation, priority 2001, dated 2003).

Test: Example 3B: solubility of permethrin in PM (propylene glycol monomethyl ether), DM (diethylene glycol monomethyl ether) and PM or DPM (dipropylene glycol monomethyl ether)/d-limonene mixtures at low temperatures, seeded
Conditions: for % permethrin remaining in solution: DM
Experimental: These solutions were poured into 100 mL tubes with screw top caps. These tubes were placed in the cold water bath and allowed to come to equilibrium at the temperature of the bath. […] The seeded preparations were then thoroughly shaken, replaced in the bath and allowed to remain in the bath for a 24 hour period. The preparations were then examined for crystallization, then again thoroughly agitated and replaced in the bath for an additional time period. Samples of the supernatant were removed after additional crystallization had occurred.
The solvent mixtures tested were: dipropylene glycol monomethyl ether/d-limonene and propylene glycol monomethyl ether/d-limonene.
These solvent mixtures were evaluated at ratios of 2:1, 1:1, 1:2, and then at 8:2 and 9:1 (the first number refers to one of the glycol ethers, the second number refers to d-limonene).

With `CC1(C)C(C=C(Cl)Cl)C1C(=O)OCc1cccc(Oc2ccccc2)c1` (centres unmarked) [permethrin] the “% Total Permethrin” value (65% permethrin in DPM/d-limonene, 0% d-limonene of solvent mixture, 0° C.) was 58.25%, the “% Total Permethrin” value (65% permethrin in DPM/d-limonene, 0% d-limonene of solvent mixture, 5° C.) was 60.53% and the “% Total Permethrin” value (65% permethrin in DPM/d-limonene, 10% d-limonene of solvent mixture, 10° C.) was 61.42%. The “% Total Permethrin” value (65% permethrin in DPM/d-limonene, 20% d-limonene of solvent mixture, 10° C.) was 63.46%, the “% Total Permethrin” value (65% permethrin in DPM/d-limonene, 33% d-limonene of solvent mixture, 0° C.) was 61.65% and the “% Total Permethrin” value (65% permethrin in DPM/d-limonene, 33% d-limonene of solvent mixture, 5° C.) was 63.92%. The “% Total Permethrin” value (65% permethrin in DPM/d-limonene, 33% d-limonene of solvent mixture, 10° C.) was 64.93%, the “% Total Permethrin” value (65% permethrin in DPM/d-limonene, 50% d-limonene of solvent mixture, 0° C.) was 61.55% and the “% Total Permethrin” value (65% permethrin in DPM/d-limonene, 50% d-limonene of solvent mixture, 5° C.) was 64.83%. For the same compound, the “% Total Permethrin” value (65% permethrin in DPM/d-limonene, 50% d-limonene of solvent mixture, 10° C.) was 64.30%, the “% Total Permethrin” value (65% permethrin in DPM/d-limonene, 67% d-limonene of solvent mixture, 0° C.) was 61.33% and the “% Total Permethrin” value (65% permethrin in DPM/d-limonene, 67% d-limonene of solvent mixture, 5° C.) was 65.55%. The “% Total Permethrin” value (65% permethrin in DPM/d-limonene, 67% d-limonene of solvent mixture, 10° C.) was 64.92%, the “% Total Permethrin” value (65% permethrin in DPM/d-limonene, 100% d-limonene of solvent mixture, 0° C.) was 60.27% and the “% Total Permethrin” value (65% permethrin in DPM/d-limonene, 100% d-limonene of solvent mixture, 5° C.) was 62.73%. The “% Total Permethrin” value (65% permethrin in DPM/d-limonene, 100% d-limonene of solvent mixture, 10° C.) was 65.88%, the “% Total Permethrin” value (65% permethrin in PM/d-limonene, 0% d-limonene of solvent mixture, 0° C.) was 52.65% and the “% Total Permethrin” value (65% permethrin in PM/d-limonene, 0% d-limonene of solvent mixture, 5° C.) was 59.51%. The “% Total Permethrin” value (65% permethrin in PM/d-limonene, 10% d-limonene of solvent mixture, 10° C.) was 62.08%, the “% Total Permethrin” value (65% permethrin in PM/d-limonene, 20% d-limonene of solvent mixture, 10° C.) was 64.35% and the “% Total Permethrin” value (65% permethrin in PM/d-limonene, 33% d-limonene of solvent mixture, 0° C.) was 59.42%. The “% Total Permethrin” value (65% permethrin in PM/d-limonene, 33% d-limonene of solvent mixture, 5° C.) was 63.08%, the “% Total Permethrin” value (65% permethrin in PM/d-limonene, 33% d-limonene of solvent mixture, 10° C.) was 63.89% and the “% Total Permethrin” value (65% permethrin in PM/d-limonene, 50% d-limonene of solvent mixture, 0° C.) was 61.74%. For the same compound, the “% Total Permethrin” value (65% permethrin in PM/d-limonene, 50% d-limonene of solvent mixture, 5° C.) was 64.05%, the “% Total Permethrin” value (65% permethrin in PM/d-limonene, 50% d-limonene of solvent mixture, 10° C.) was 64.45% and the “% Total Permethrin” value (65% permethrin in PM/d-limonene, 67% d-limonene of solvent mixture, 0° C.) was 61.45%. The “% Total Permethrin” value (65% permethrin in PM/d-limonene, 67% d-limonene of solvent mixture, 5° C.) was 64.86%, the “% Total Permethrin” value (65% permethrin in PM/d-limonene, 67% d-limonene of solvent mixture, 10° C.) was 65.95% and the “% Total Permethrin” value (65% permethrin in PM/d-limonene, 100% d-limonene of solvent mixture, 0° C.) was 60.27%. The “% Total Permethrin” value (65% permethrin in PM/d-limonene, 100% d-limonene of solvent mixture, 5° C.) was 62.73%, the “% Total Permethrin” value (65% permethrin in PM/d-limonene, 100% d-limonene of solvent mixture, 10° C.) was 65.88% and the “% Total Permethrin” value (70% permethrin in DPM/d-limonene, 0% d-limonene of solvent mixture, 0° C.) was 64.24%. For the same compound, the “% Total Permethrin” value (70% permethrin in DPM/d-limonene, 0% d-limonene of solvent mixture, 5° C.) was 65.56%, the “% Total Permethrin” value (70% permethrin in DPM/d-limonene, 0% d-limonene of solvent mixture, 10° C.) was 66.58% and the “% Total Permethrin” value (70% permethrin in DPM/d-limonene, 10% d-limonene of solvent mixture, 10° C.) was 66.95%. For the same compound, the “% Total Permethrin” value (70% permethrin in DPM/d-limonene, 20% d-limonene of solvent mixture, 10° C.) was 67.71%, the “% Total Permethrin” value (70% permethrin in DPM/d-limonene, 33% d-limonene of solvent mixture, 5° C.) was 69.64% and the “% Total Permethrin” value (70% permethrin in DPM/d-limonene, 33% d-limonene of solvent mixture, 10° C.) was 67.38%. The “% Total Permethrin” value (70% permethrin in DPM/d-limonene, 50% d-limonene of solvent mixture, 0° C.) was 65.66%, the “% Total Permethrin” value (70% permethrin in DPM/d-limonene, 50% d-limonene of solvent mixture, 5° C.) was 68.48% and the “% Total Permethrin” value (70% permethrin in DPM/d-limonene, 50% d-limonene of solvent mixture, 10° C.) was 66.70%. For the same compound, the “% Total Permethrin” value (70% permethrin in DPM/d-limonene, 67% d-limonene of solvent mixture, 0° C.) was 66.05%, the “% Total Permethrin” value (70% permethrin in DPM/d-limonene, 67% d-limonene of solvent mixture, 5° C.) was 69.38% and the “% Total Permethrin” value (70% permethrin in DPM/d-limonene, 67% d-limonene of solvent mixture, 10° C.) was 67.98%. For the same compound, the “% Total Permethrin” value (70% permethrin in DPM/d-limonene, 100% d-limonene of solvent mixture, 0° C.) was 64.61%, the “% Total Permethrin” value (70% permethrin in DPM/d-limonene, 100% d-limonene of solvent mixture, 5° C.) was 66.05% and the “% Total Permethrin” value (70% permethrin in DPM/d-limonene, 100% d-limonene of solvent mixture, 10° C.) was 69.30%. For the same compound, the “% Total Permethrin” value (70% permethrin in PM/d-limonene, 0% d-limonene of solvent mixture, 0° C.) was 57.91%, the “% Total Permethrin” value (70% permethrin in PM/d-limonene, 0% d-limonene of solvent mixture, 5° C.) was 64.79% and the “% Total Permethrin” value (70% permethrin in PM/d-limonene, 10% d-limonene of solvent mixture, 10° C.) was 66.70%. For the same compound, the “% Total Permethrin” value (70% permethrin in PM/d-limonene, 20% d-limonene of solvent mixture, 10° C.) was 66.92%, the “% Total Permethrin” value (70% permethrin in PM/d-limonene, 33% d-limonene of solvent mixture, 0° C.) was 65.20% and the “% Total Permethrin” value (70% permethrin in PM/d-limonene, 33% d-limonene of solvent mixture, 5° C.) was 67.36%. The “% Total Permethrin” value (70% permethrin in PM/d-limonene, 33% d-limonene of solvent mixture, 10° C.) was 67.80%, the “% Total Permethrin” value (70% permethrin in PM/d-limonene, 50% d-limonene of solvent mixture, 0° C.) was 65.36% and the “% Total Permethrin” value (70% permethrin in PM/d-limonene, 50% d-limonene of solvent mixture, 5° C.) was 69.65%. The “% Total Permethrin” value (70% permethrin in PM/d-limonene, 50% d-limonene of solvent mixture, 10° C.) was 68.40%, the “% Total Permethrin” value (70% permethrin in PM/d-limonene, 67% d-limonene of solvent mixture, 0° C.) was 65.94% and the “% Total Permethrin” value (70% permethrin in PM/d-limonene, 67% d-limonene of solvent mixture, 5° C.) was 68.33%. For the same compound, the “% Total Permethrin” value (70% permethrin in PM/d-limonene, 100% d-limonene of solvent mixture, 0° C.) was 64.61%, the “% Total Permethrin” value (70% permethrin in PM/d-limonene, 100% d-limonene of solvent mixture, 5° C.) was 66.05% and the “% permethrin remaining in solution” value (5° C., Original % permethrin 50) was 46.00%. The “% permethrin remaining in solution” value (5° C., Original % permethrin 55) was 51.74%, the “% permethrin remaining in solution” value (5° C., Original % permethrin 60) was 55.09% and the “% permethrin remaining in solution” value (5° C., Original % permethrin 65) was 60.22%. The “% permethrin remaining in solution” value (10° C., Original % permethrin 50) was 46.80% and the “% permethrin remaining in solution” value (10° C., Original % permethrin 55) was 50.72%.
